Key:
[1] = target: T1, RORγ ligand binding domain (LBD) (Homo sapiens, UniProt P51449); assay: TR-FRET Activity Assay (ligand sensing assay, RORγ-LBD / coactivator peptide interaction); assay type: biochemical
T1 construct: made in house; host or cells: E. coli BL-21 (BL3), vector pDEST15
T1 sequence (P51449 269-508 limits assumed): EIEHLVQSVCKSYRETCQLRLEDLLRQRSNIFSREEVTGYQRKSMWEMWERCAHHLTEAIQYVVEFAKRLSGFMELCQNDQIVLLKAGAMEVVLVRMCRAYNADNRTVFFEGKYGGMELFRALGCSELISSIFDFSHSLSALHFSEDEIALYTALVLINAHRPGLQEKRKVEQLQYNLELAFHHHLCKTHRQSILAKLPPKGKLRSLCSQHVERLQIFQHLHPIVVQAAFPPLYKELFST
From the text: This method measures the ability of putative ligands to modulate the interaction between the purified bacterial expressed RORγ ligand binding domain (LBD) and synthetic N-terminally biotinylated peptides which are derived from nuclear receptor coactivator proteins such as but not limited to SRC1 (NcoA1), SRC2 (NcoA2, TIF2), SRC3 (NcoA3), PGC1α, PGC1β, CBP, GRIP1, TRAP220, RIP140.
The ligand-binding domain (LBD) of RORγ was expressed as fusion protein with GST in […] cells using the vector pDEST15. Cells were lysed by lysozyme-treatment and sonication, and the fusion proteins purified over glutathione sepharose (Pharmacia) according to the manufacturers instructions. For screening of compounds for their influence on the RORγ-peptide interaction, the LANCE technology (Perkin Elmer) was applied. This method relies on the binding dependent energy transfer from a donor to an acceptor fluorophor attached to the binding partner of interest. For ease of handling and reduction of background from compound fluorescence LANCE technology makes use of generic fluorophore labels and time resolved detection assays were done in a final volume of 25 μL in a 384 well plate, in a Tris-based buffer system (20 mM Tris-HCl pH6.8; 60 mM KCl, 1 mM DTT; 5 mM MgCl2; 35 ng/μL BSA), containing 20-60 ng/well recombinantly expressed RORγ-LBD fused to GST, 200-600 nM N-terminally biotinylated peptide, 200 ng/well Streptavidin-xIAPC conjugate (Prozyme) and 6-10 ng/well Eu W1024-antiGST (Perkin Elmer). DMSO content of the samples was kept at 1%.
After generation of the Tris-based buffer system, the potentially RORγ modulating ligands were diluted. […] The LANCE signal was detected by a Perkin Elmer EnVision™ Multilabel Counter. The results were visualized by plotting the ratio between the emitted light at 665 nm and 615 nm. […] Ligands that promote the complex formation induce a concentration-dependent increase in time-resolved fluorescent signal.
To assess the antagonistic potential of the compounds, IC50 values were determined using a Ligand Sensing Assay based on Time-resolved Fluorescence Energy Transfer (TR-FRET) as described above. The normalised TR-FRET assay values, using the following equation: 1000*665 nm measurement value/615 nm measurement value, were transferred to the program GraphPad Prism to generate graphs and dose response curves using the following equation: […]
This is identical to the “four parameter logistic equation”. The IC50 values are calculated using this equation. […] Is is understood that the data illustrated below may have reasonable variation depending on the specific conditions and procedures used by the person conducting the test.

[2] = target: T2, RORγ (UniProt P51449); assay type: cell-based; conditions: 293T cells, 16 h; for pIC50 (FF): firefly (FF) luciferase; for pIC50 (REN): renilla normalised (RENnorm) luciferase
T2 construct: hRORg-LBD|aa259-518|NP_005051.2; hRORgt|aa1-497|NP_001001523 (RORg, t isoform, 497aa); mRORg-LBD|aa264-516|NP_035411
T2 sequence (P51449 1-518): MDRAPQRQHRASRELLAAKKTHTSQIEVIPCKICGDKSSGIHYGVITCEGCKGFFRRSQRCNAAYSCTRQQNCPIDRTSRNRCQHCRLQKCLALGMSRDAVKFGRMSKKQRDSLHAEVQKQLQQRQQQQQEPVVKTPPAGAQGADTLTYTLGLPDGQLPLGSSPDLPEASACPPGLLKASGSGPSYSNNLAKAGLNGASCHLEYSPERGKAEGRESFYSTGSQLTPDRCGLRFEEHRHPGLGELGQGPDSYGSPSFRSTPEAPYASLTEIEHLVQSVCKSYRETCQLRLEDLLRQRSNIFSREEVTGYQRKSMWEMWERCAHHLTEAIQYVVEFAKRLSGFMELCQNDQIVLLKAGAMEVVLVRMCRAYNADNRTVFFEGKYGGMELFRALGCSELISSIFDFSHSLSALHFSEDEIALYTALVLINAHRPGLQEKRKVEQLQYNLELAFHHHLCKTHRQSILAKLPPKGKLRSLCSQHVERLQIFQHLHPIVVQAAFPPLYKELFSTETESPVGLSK
Procedure: Determination of a ligand mediated Gal4 promoter driven transactivation to quantify ligand binding to RORγ was performed as follows: DNA encoding three different RORγ. protein fragments was cloned into vector pCMV-BD (Stratagene). Expression was under control of a CMV promoter and as fusion to the DNA-binding domain of the yeast protein GAL4. Other vectors used were pFR-Luc (Stratagene) as regulated reporter plasmid. pFR-Luc contains a synthetic promoter with five tandem repeats of the yeast GAL4 binding sites that control expression of the Photinus pyralis (American firefly) luciferase gene. In order to improve experimental accuracy the plasmid pRL-CMV was cotransfected. pRL-CMV contains the constitutive CMV promoter, controlling the expression of the Renilla reniformis luciferase.
All Gal4 reporter gene assays were done in 293T cells (DSMZ (German Collection of Microorganisms and Cell Cultures), Braunschweig, Germany, ACC635) grown in Minimum Essential Medium (MEM) with Phenol Red. The medium is supplemented with 10% fetal bovine serum, 0.1 mM nonessential amino acids, 1 mM sodium pyruvate, 1% Glutamax and 100 units Penicilin/[…] per mL at 37° C. in 5% CO2.
For the assay, […] were plated per well in 96 well plates in 100 μL per well, incubated over night at 37° C. in 5% CO2. The following day, medium was discarded and the cells were transiently transfected using 20 μL per well of a OptiMEM—PEI-based transfection-reagent (Sigma-Aldrich, 408727) including the three plasmids described above. About 4 h after addition of the transfection solution, fresh Minimal Essential Medium (MEM, same composition as used for plating cells, but without serum) was added. Then compound stocks, prediluted in MEM (same composition as used for plating cells) were added (final vehicle concentration not exceeding 0.1%).
All experiments were done at least in triplicates.
It is understood that the data illustrated below may have reasonable variation depending on the specific conditions and procedures used by the person conducting the test.

SMILES	IC50 [1]	pIC50 (FF) [2]	pIC50 (REN) [2]
Cc1c(C(=O)NC2CCOCC2)cc(-c2ccc(S(=O)(=O)NC(C)(C)C)c(C(F)(F)F)c2)n1CC1CCOC1 (stereo not drawn) [302/4]	3.98 µM	< 4.7	< 4.7
Cc1c(C(=O)NC2CCOCC2)cc(-c2ccc(S(=O)(=O)NC(C)(C)C)c(C(F)(F)F)c2)n1CC1CCCOC1 (stereo not drawn) [302/5]	0.794 µM	6.2	6.3
Cc1c(C(=O)NC2CCOCC2)cc(-c2ccc(S(=O)(=O)NC(C)(C)C)c(C(F)(F)F)c2)n1C1CCCCC1 [302/6]	1 µM	6.5	6.7
CC(C)(C)c1cc(-c2nc(C(N)=O)nn2CC2CCCCC2)cc(C(C)(C)C)c1 [308/1]	2.51 µM	6.0	6.0
CC(C)(C)c1cc(-c2nc(C(=O)NC3CC3)nn2CC2CCCCC2)cc(C(C)(C)C)c1O [308/2]	0.631 µM	6.2	6.3
CC(C)(C)c1cc(-c2nc(C(=O)NC3COC3)nn2CC2CCCCC2)cc(C(C)(C)C)c1O [308/3]	0.794 µM	6.3	6.4
CC(C)(C)c1cc(-c2nc(C(=O)NC3CCOCC3)nn2CC2CCCCC2)cc(C(C)(C)C)c1O [308/4]	1 µM	6.3	6.4
CC(C)(O)CNC(=O)c1nc(-c2cc(C(C)(C)C)c(O)c(C(C)(C)C)c2)n(CC2CCCCC2)n1 [308/6]	1 µM	6.5	6.5
C[C@@H](O)CNC(=O)c1nc(-c2cc(C(C)(C)C)c(O)c(C(C)(C)C)c2)n(CC2CCCCC2)n1 [308/7]	2.51 µM	5.7	5.9
C[C@H](O)CNC(=O)c1nc(-c2cc(C(C)(C)C)c(O)c(C(C)(C)C)c2)n(CC2CCCCC2)n1 [308/8]	1.58 µM	6.2	6.3
CC(C)(C)NS(=O)(=O)c1ccc(-c2nc(C(=O)NC3CCOCC3)nn2CC2CCCCC2)cc1C(C)(C)C [308/9]	7.94 µM	5.6	5.6
CC(C)(C)NS(=O)(=O)c1ccc(-c2nc(C(=O)N[C@H]3C[C@H](C(=O)O)C3)nn2CC2CCCCC2)cc1C(C)(C)C [308/10]	6.31 µM	< 4.7	< 4.7
Cc1cc(-n2nc(C(N)=O)cc2CC2CCCCC2)cc(C(C)(C)C)c1 [312/2]	7.94 µM	< 4.7	< 4.7
Cc1c(C(=O)NCC(C)(C)O)cn(-c2cc(C(C)(C)C)cc(C3(C)CC3)c2)c1CC1CCCCC1 [Example 1/1]	0.2 µM	7.4	7.5
Cc1c(C(=O)NC2CCOCC2)cn(-c2cc(Br)cc(C(C)(C)C)c2)c1C=C1CCCCC1 [Example 2, 1-(3-Bromo-5-(tert-butyl)phenyl)-5-(cyclohexylidenemethyl)-4-methyl-N-(tetrahydro-2H-pyran-4-yl)-1H-pyrrole-3-carboxamide]	1.26 µM	6.4	6.5
Cc1c(C(=O)NCCC(C)(C)C(=O)O)cn(-c2ccc(S(=O)(=O)NC(C)(C)C)c(C(F)(F)F)c2)c1CC1CCCCC1 [Example 4, 4-(1-(4-(N-(tert-Butyl)sulfamoyl)-3-(trifluoromethyl)phenyl)-5-(cyclohexylmethyl)-4-methyl-1H-pyrrole-3-carboxamido)-2,2-dimethylbutanoic acid]	0.501 µM	7.7	7.7
Cc1c(C(=O)N[C@H]2C[C@H](C(=O)O)C2)cn(-c2ccc(S(=O)(=O)NC(C)(C)C)c(C(C)(C)C)c2)c1CC1CCCCC1 [Example 4/1]	1.26 µM	7.2	7.3
Cc1c(C(=O)N[C@H]2C[C@H](C(=O)O)C2)cn(-c2cc(C(C)(C)C)cc(C3(C)CC3)c2)c1C(=O)C1CCCCC1 [Example 6, (trans)-3-(1-(3-(tert-Butyl)-5-(1-methylcyclopropyl)phenyl)-5-(cyclohexanecarbonyl)-4-methyl-1H-pyrrole-3-carboxamido)cyclobutanecarboxylic acid]	0.501 µM	7.9	8.0
Cn1c(C(=O)N[C@H]2C[C@H](C(=O)O)C2)cc(-c2cc(C(C)(C)C)cc(C3(C)CC3)c2)c1CC1CCCCC1 [Example 8, (trans)-3-(4-(3-(tert-BUTYL)-5-(1-methylcyclopropyl)phenyl)-5-(cyclohexylmethyl)-1-methyl-1H-pyrrole-2-carboxamido)cyclobutanecarboxylic acid]	1 µM	7.6	7.7
Cn1c(C(=O)NCCC(C)(C)C(=O)O)cc(-c2ccc(S(=O)(=O)NC(C)(C)C)c(C(C)(C)C)c2)c1CC1CCCCC1 [Example 8/1]	2 µM	7.0	7.0
Cc1c(C(=O)NCCC(C)(C)C(=O)O)c(Cl)n(-c2ccc(S(=O)(=O)NC(C)(C)C)c(C(F)(F)F)c2)c1CC1CCCCC1 [Example 9, 4-(1-(4-(N-(tert-Butyl)sulfamoyl)-3-(trifluoromethyl)phenyl)-2-chloro-5-(cyclohexylmethyl)-4-methyl-1H-pyrrole-3-carboxamido)-2,2-dimethylbutanoic acid]	0.794 µM	8.4	8.4

From US9458104B2 (priority 2012, dated 2016)
